In the NIST ThermoML archive (doi:10.1016/j.jct.2014.01.028):
Numbers after ± are expanded uncertainties.

Conditions: for electrical conductivity / viscosity / mass density: 101.33 kPa, Liquid; for electrical conductivity: Alternating current cell with electrodes; for viscosity: Capillary tube (Ostwald / Ubbelohde) method; for mass density: Pycnometric method; for Glass transition temperature: DTA

Row | Structure (SMILES) | electrical conductivity (293.15 K) | viscosity (293.15 K) | mass density (293.15 K) | electrical conductivity (303.15 K) | viscosity (303.15 K) | mass density (303.15 K) | electrical conductivity (313.15 K) | viscosity (313.15 K) | mass density (313.15 K) | electrical conductivity (323.15 K) | viscosity (323.15 K) | mass density (323.15 K) | electrical conductivity (333.15 K) | viscosity (333.15 K) | mass density (333.15 K) | electrical conductivity (343.15 K) | viscosity (343.15 K) | mass density (343.15 K) | Glass transition temperature
1 | CCn1cc[n+](C)c1.c1c[n-]cn1 [1-ethyl-3-methylimidazolium imidazolide] | 0.27 ± 0.0086 S/m | 191.8 ± 8.1 mPa·s | 1113.5 ± 3.3 kg/m3 | 0.487 ± 0.015 S/m | 87.9 ± 3.5 mPa·s | 1106.7 ± 3.3 kg/m3 | 0.804 ± 0.026 S/m | 42.4 ± 1.6 mPa·s | 1100.3 ± 3.3 kg/m3 | 1.24 ± 0.039 S/m | 22.9 ± 0.9 mPa·s | 1092.5 ± 3.3 kg/m3 | 1.69 ± 0.054 S/m | 14.8 ± 0.5 mPa·s | 1086.3 ± 3.3 kg/m3 | 2.11 ± 0.067 S/m | 8.6 ± 0.3 mPa·s | 1079.7 ± 3.3 kg/m3 | -60.01 ± 2 °C
2 | C[n+]1ccn(CCCN)c1.c1c[n-]cn1 [1-(3-aminopropyl)-3-methylimidazolium imidazolide] | 0.0842 ± 0.0027 S/m | 220 ± 9.6 mPa·s | 1148.4 ± 3.5 kg/m3 | 0.166 ± 0.0053 S/m | 98.4 ± 4 mPa·s | 1143.1 ± 3.5 kg/m3 | 0.304 ± 0.0097 S/m | 54.5 ± 2 mPa·s | 1137.5 ± 3.5 kg/m3 | 0.504 ± 0.016 S/m | 32.1 ± 1.2 mPa·s | 1131.8 ± 3.5 kg/m3 | 0.738 ± 0.024 S/m | 19.9 ± 0.7 mPa·s | 1126.3 ± 3.5 kg/m3 | 1.09 ± 0.035 S/m | 13.7 ± 0.5 mPa·s | 1120.8 ± 3.5 kg/m3 | -55.02 ± 2 °C
3 | C[n+]1ccn(CCCCn2cc[n+](C)c2)c1.c1c[n-]cn1.c1c[n-]cn1 | 0.0266 ± 0.0008 S/m | – | 1177.4 ± 3.7 kg/m3 | 0.0686 ± 0.0022 S/m | 3058 ± 220 mPa·s | 1172.8 ± 3.7 kg/m3 | 0.146 ± 0.0047 S/m | 1003 ± 64 mPa·s | 1166.9 ± 3.7 kg/m3 | 0.283 ± 0.009 S/m | 427.1 ± 22 mPa·s | 1158.7 ± 3.7 kg/m3 | 0.498 ± 0.016 S/m | 206.3 ± 9.1 mPa·s | 1154.3 ± 3.7 kg/m3 | 0.955 ± 0.03 S/m | 111.5 ± 4.6 mPa·s | 1148.9 ± 3.7 kg/m3 | -54.34 ± 2 °C
4 | C[n+]1ccn(CCn2cc[n+](C)c2)c1.c1c[n-]cn1.c1c[n-]cn1 | 0.0111 ± 0.00035 S/m | – | 1210.8 ± 3.9 kg/m3 | 0.0309 ± 0.00098 S/m | 6306 ± 530 mPa·s | 1206 ± 3.9 kg/m3 | 0.0684 ± 0.0022 S/m | 2538 ± 180 mPa·s | 1200 ± 3.9 kg/m3 | 0.145 ± 0.0046 S/m | 854.7 ± 52 mPa·s | 1191.5 ± 3.9 kg/m3 | 0.254 ± 0.0081 S/m | 440.2 ± 22 mPa·s | 1185.7 ± 3.9 kg/m3 | 0.425 ± 0.013 S/m | 145.1 ± 8.2 mPa·s | 1178.9 ± 3.9 kg/m3 | -56.18 ± 2 °C
5 | CCCCn1cc[n+](C)c1.c1c[n-]cn1 [1-butyl-3-methylimidazolium imidazolide] | 0.0737 ± 0.0023 S/m | 533.3 ± 28 mPa·s | 1085.3 ± 3.2 kg/m3 | 0.15 ± 0.0048 S/m | 272.6 ± 13 mPa·s | 1079.9 ± 3.2 kg/m3 | 0.284 ± 0.009 S/m | 140 ± 6 mPa·s | 1073.2 ± 3.2 kg/m3 | 0.481 ± 0.015 S/m | 76.8 ± 2.9 mPa·s | 1066.5 ± 3.2 kg/m3 | 0.713 ± 0.023 S/m | 47.5 ± 1.7 mPa·s | 1060.4 ± 3.2 kg/m3 | 1.01 ± 0.032 S/m | 34 ± 1.2 mPa·s | 1054.1 ± 3.2 kg/m3 | -56.01 ± 2 °C
6 | C[n+]1ccn(CCO)c1.c1c[n-]cn1 [1-(2-hydroxyethyl)-3-methylimidazolium imidazolide] | 0.000168 ± 5e-06 S/m | – | 1301 ± 4.5 kg/m3 | 0.000636 ± 2e-05 S/m | 8896 ± 790 mPa·s | 1295.7 ± 4.5 kg/m3 | 0.00229 ± 7e-05 S/m | 3632 ± 280 mPa·s | 1289.8 ± 4.5 kg/m3 | 0.00646 ± 0.00021 S/m | 1255 ± 82 mPa·s | 1283.7 ± 4.5 kg/m3 | 0.0174 ± 0.00055 S/m | 615.2 ± 34 mPa·s | 1278.1 ± 4.5 kg/m3 | 0.0391 ± 0.0013 S/m | 290.4 ± 14 mPa·s | 1272.3 ± 4.4 kg/m3 | -54.01 ± 2 °C
